Source: patent US20230321101A1, “METHODS AND USES OF HALOFUGINONE” (The Regents of the University of California, priority 2020, published 2023)
“And” between values parts separate entries of the source, which are not always exact repeats. Equal entries are not always repeated. Where two headings read alike, the source gives them in different places.

Assays:
[1] = test system: core HSPGs in Hep3B cells; assay: HSPG core proteins by SDS-PAGE with mAb 3G10 in Hep3B cells; assay type: cell-based, human
authentic SARS-CoV-2 [2] = assay type: cell-based
authentic SARS-CoV-2 [3] = assay type: cell-based; remark: listed apart in the source
authentic SARS-CoV-2 [4] = assay: microbe, parasite or virus in culture; assay type: cell-based
SARS-CoV-2 = SARS-CoV-2 infected hamsters, oral halofuginone, lung pathology; assay type: in vivo; settings: vs PBS
Source text: FIG. 37A-FIG. 37F: Oral dosing of halofuginone to hamsters infected with SARS-CoV-2 improved hamster lung pathology relative to a control group of hamsters (PBS).

ZIKV (Zika virus) = assay: ZIKV antiviral immunofluorescence assay in SH-SY5Y cells; assay type: cell-based; settings: Zika virus, read-out: EC50 ZIKV
Protocol: Experimental Procedure. The antiviral activity of 8 dilutions of each compound was explored by adding the drug to the assay cells 2 h after infection with the different viruses. Virus and compounds were left on the cells for the entire duration of the experiment (28 h for Zika virus and 24 h for all other viruses). The cytotoxicity of the same range of concentrations of compounds was determined by LDH release assay in the same cell lines.
Cell plating. Cells were detached and counted following SOP-RA 003 and SOP-RA 004. Count was recorded in the Cell Count Logbook, Volume 1. For each virus four plates were seeded, two for the antiviral assay and two for the cytotoxicity assay. Cells were seeded in 100 μl/well of complete media at the following densities: • Huh7: 8,000 cells/well (Dengue) • SH-SY5Y: 10,000 cells/wells (Zika) • HeLa Tzmbl: 8,000 cells/well (HIV)
Compounds dilutions. The 22.1 mM stocks were further diluted to 1 mM in DMSO by adding 211 μl of DMSO to 10 μl of compound. Three serial dilutions were prepared in different media for different viruses/cells. For each dilution, drugs were prepared at twice the final concentration in 50 μl volume, because they are diluted to the final concentration by an equal volume of virus or media.
Infection. Cells were infected in 50 μl of supplemented media/well at the following multiplicity of infection (MOI): • DENV-2, MOI 1 • ZIKV, MOI 5 • HIV, MOI 0.5
After removing culture media from cells, 50 μl of virus dilution were added to all wells except Column 11 (uninfected control), where the same volume of supplemented media was added. […]
Infectivity readout. […] The primary antibodies were detected with an Alexa-488 conjugate secondary antibody (Life Technologies, A11001), and nuclei were stained with Hoechst. Images were acquired on a CellInsight CX5 high content platform (Thermo Scientific) using a 4× objective, and percentage infection calculated using CellInsight CX5 software (infected cells/total cells×100).
Determination of % Inhibition—IF assay. Normalized percentages of inhibition were calculated using the following formula: […]

hepcidin expression [5] = assay: Hepcidin expression in Hep3B human hepatocytes; assay type: cell-based
Protocol: FIG. 6. Hep3B—18 hr incubation.
FIG. 7. Hep3B—24 hr incubation.

hepcidin expression [6] = assay: Hepcidin and SMAD7 expression in HepG2 human hepatocytes; assay type: cell-based; settings: HepG2, 24 hr incubation
Protocol: FIG. 8A and FIG. 8B. HepG2—24 hr incubation.

hepcidin expression [7] = assay: Hepcidin expression in the mouse liver upon iron loading; assay type: in vivo; settings: mice, 1 μg per mouse per day for 8 days, iron-rich diet (8.3 g/kg) for 7 days
Protocol: FIG. 10. […] Mice treated with Halofuginone for 8 days, 1 μg per mouse per day. Mice were either on normal iron-balanced chow (0.2 g/kg) or iron-rich diet (8.3 g/kg) for 7 days in conjunction with the treatment.

[8] = test system: recombinant SARS-CoV-2 spike RBD protein binding to Hep3B cells
[9] = test system: recombinant SARS-CoV-2 spike RBD protein binding to Calu-3 cells
[10] = test system: recombinant SARS-CoV-2 spike RBD protein binding to Caco-2 cells
[11] = test system: primary human bronchial epithelial cells; settings: 10 nM and 100 nM
[12] = human, cited from earlier work

O=C(CC1NCCCC1O)Cn1cnc2cc(Br)c(Cl)cc2c1=O (racemic) [halofuginone]
expression of core HSPGs (mAb 3G10) [1]: reduced the expression of core HSPGs in a dose-dependent manner
number of SARS-CoV-2 infected cells (authentic SARS-CoV-2 [2]; at both 10 nM and 100 nM): significantly reduced the number of SARS-CoV-2 infected cells
inhibition of SARS-CoV-2 (authentic SARS-CoV-2 [2]; different halofuginone doses): complete inhibition of SARS-CoV-2
decrease of viral RNA levels (authentic SARS-CoV-2 [3]): 10- to 100 fold
intracellular viral RNA (authentic SARS-CoV-2 [3]): did not change
reduction of SARS-CoV-2 infectivity (authentic SARS-CoV-2 [3]): 3 Log and 4 Log
reduction of secreted infectious virions (authentic SARS-CoV-2 [3]): ~1000 fold
virus in plaque assays (authentic SARS-CoV-2 [3]; HuH 7.5, doses above 100 nM): No virus was detected in plaque assays
productive infection (authentic SARS-CoV-2 [3]; Huh 7.5, 100 nM): prevented productive infection
reduction of SARS-CoV-2 infection (viral titers) (authentic SARS-CoV-2 [3]; Huh 7.5, 100 nM, pretreatment alone): ~30 fold
IC50 (authentic SARS-CoV-2 [4]; Severe acute respiratory syndrome coronavirus 2, Vero C1008, Vero E6, excess proline in the media (4 mM), read-out: IC50 of SARS-CoV-2 infection, proline rescue experiment): 210 nM
IC50 (authentic SARS-CoV-2 [4]; Severe acute respiratory syndrome coronavirus 2, Vero C1008, Vero E6, without excess proline, read-out: IC50 of SARS-CoV-2 infection, proline rescue experiment): 12.5 nM
IC50 (authentic SARS-CoV-2 [4]; Severe acute respiratory syndrome coronavirus 2, Vero C1008, Vero E6, read-out: IC50 of SARS-CoV-2 infectivity, enantiomer comparison): 28 nM
IC50 (authentic SARS-CoV-2 [4]; Severe acute respiratory syndrome coronavirus 2, Vero C1008, read-out: IC50 of SARS-CoV-2 infection): 13 nM
effect on authentic SARS-CoV-2 infection (authentic SARS-CoV-2 [4]; Vero E6): inhibit SARS-CoV-2 infection
potency compared to chloroquine (authentic SARS-CoV-2 [4]; Vero E6): 100 fold
inhibition of SARS-CoV-2 infectivity (authentic SARS-CoV-2 [4]; Vero E6, 50 nM): completely inhibited SARS-CoV-2 infectivity
inhibition of SARS-CoV-2 infectivity (authentic SARS-CoV-2 [4]; Vero E6, doses greater than 10 nM): complete inhibition of SARS-CoV-2 infectivity
lung fibrosis, blood clotting, and inflammation (SARS-CoV-2; oral 1 mg/kg): reduced lung fibrosis, blood clotting, and inflammation
extended lung pathology (SARS-CoV-2; oral dosing): significant improvement
lung pathology severity (SARS-CoV-2; oral dosing): significant improvement
lung weight (SARS-CoV-2; oral dosing): significant improvement
macroscopic lung pathology (SARS-CoV-2; oral dosing): significant improvement
EC50 (ZIKV (Zika virus)): 21.8 nM
basal hepcidin expression (hepcidin expression [5]; 18 hr incubation): inhibits basal hepcidin expression
BMP6 induced expression of hepcidin (hepcidin expression [5]; 24 hr incubation): inhibits BMP6 induced expression of hepcidin
BMP induced expression of hepcidin (hepcidin expression [6]): inhibits BMP induced expression of hepcidin
SMAD7 levels (hepcidin expression [6]): increases SMAD7 levels
inflammation (IL6) induced expression of hepcidin (hepcidin expression [6]): inhibits inflammation (1L6) induced expression of hepcidin
hepcidin expression in the liver (hepcidin expression [7]): reduces hepcidin expression in the mouse liver
decrease of SARS-CoV-2 RBD binding compared to excipient control (DMSO) ([8]; 1 μM, 18 h): 84%
inhibition of spike RBD protein binding with excess proline ([8]; 4 mM proline in the media): prevented the ability of halofuginone to inhibit spike RED protein binding
effect on spike (RBD) protein binding ([8]; listed as Halofuginone): reduced spike RBD protein binding
effect on spike (RBD) protein binding [9]: dose-dependently inhibited spike protein binding
reduction in spike RBD binding [9]: 5 fold
effect on spike (RBD) protein binding ([9]; listed as Halofuginone): reduced spike RBD protein binding
effect on spike (RBD) protein binding [10]: dose-dependently inhibited spike protein binding
effect on spike (RBD) protein binding ([10]; listed as Halofuginone): reduced spike RBD protein binding
cell viability [11]: without affecting cell viability
accumulation, exposure by day 15 of dosing ([12]; phase I): two- to three-fold higher exposure
half-life ([12]; phase I): ~3 h
oral bioavailability ([12]; phase I): orally bioavailable
average Cmax ([12]; single oral administration of 0.5 mg): 0.54 ng/mL
average Cmax ([12]; single oral administration of 3.5 mg): 3.09 ng/mL
